From US11453666B2, “Autotaxin inhibitory compounds” (Cancer Research Technology Limited, priority 2015, dated 2022)
Where two headings read alike, the source gives them in different places.

Target: human recombinant ATX (Homo sapiens, UniProt Q13822)
Assay: Autotaxin (ATX) activity Quanta Red assay
Format: biochemical
Method: The reaction was stopped after 2 hours with a 20 μL addition of Quanta Red Stop solution (1:20 dilution in distilled water). The above-described mixture with DMSO alone was used as a positive control whereas that with DMSO alone without ATX was taken as a negative control.
Fluorescence was determined in a BMG Labtech Pherastar plus plate reader ([…]). Data were analysed using Excel fit software. IC50 values were determined in duplicate.

[1] = read-out: Activity (ATX activity, Quanta Red assay; IC50)
[2] = human recombinant ATX 0.8 μg/mL, 2 hours at room temperature, IC50 determined in duplicate, read-out: Activity (ATX activity, Quanta Red assay; IC50)

| Compound | IC50 [1] [nM] | further results |
| --- | --- | --- |
| CC(NC(=O)CCc1nc2cccnc2n1Cc1ccc(OC(F)(F)F)cc1)C1CCN(C(=O)OC(C)(C)C)CC1 (stereo not drawn) [Example 43, 4-(1-{3-[3-(4-Trifluoromethoxy-benzyl)-3H-imidazo[4,5-b]pyridin-2-yl]-propionylamino}-ethyl)-piperidine-1-carboxylic acid tert-butyl ester] | 11 | – |
| CC(Sc1nc2cccnc2n1Cc1ccc(OC(F)(F)F)cc1)C(=O)N[C@@H](CO)c1ccccc1 (stereo partly drawn) [Example 154, N—((R)-2-hydroxy-1-phenyl-ethyl)-2-[3-(4-trifluoromethoxy-benzyl)-3H-imidazo[4,5-b]pyridin-2-ylsulfanyl]-propionamide] | 11 | – |
| O=C(CCc1nc2cccnc2n1Cc1ccc(OC(F)(F)F)cc1)N[C@@H]1c2ccccc2C[C@H]1O [Example 9, N-((1R,2R)-2-Hydroxy-indan-1-yl)-3-[3-(4-trifluoromethoxy-benzyl)-3H-imidazo[4,5-b]pyridin-2-yl]-propionamide] | 1 | – |
| COc1ccc(CNC(=O)CCc2nc3cccc(F)c3n2Cc2ccc(OC)cc2)cc1 [Example 91, 3-[7-Fluoro-1-(4-methoxy-benzyl)-1H-benzoimidazol-2-yl]-N-(4-methoxy-benzyl)-propionamide] | 14 | – |
| O=C(CSc1nc2cccnc2n1Cc1ccc(OC(F)(F)F)cc1)N[C@@H](CO)c1ccccc1 [Example 142, N-((R)-2-Hydroxy-1-phenyl-ethyl)-2-[3-(4-trifluoromethoxy-benzyl)-3H-imidazo[4,5-b]pyridin-2-ylsulfanyl]-acetamide] | 1 | – |
| COc1ccc(Cn2c(CCC(=O)NCc3cccc(F)c3)nc3cccnc32)cc1 [Example 117, N-(3-Fluoro-benzyl)-3-[3-(4-methoxy-benzyl)-3H-imidazo[4,5-b]pyridin-2-yl]-propionamide] | 373 | – |
| O=C(CCc1nc2cccnc2n1Cc1ccc(OC(F)(F)F)cc1)N[C@@H](CO)Cc1ccccc1 [Example 203, N—((R)-1-Hydroxymethyl-2-phenyl-ethyl)-3-[3-(4-trifluoromethoxy-benzyl)-3H-imidazo[4,5-b]pyridin-2-yl]-propionamide] | 2 | – |
| Cc1cnc2c(c1)nc(CCC(=O)NCc1ccc(OCCCN(C)C)cc1)n2Cc1ccc(OC(F)(F)F)cc1 [Example 26, N-[4-(3-Dimethylamino-propoxy)-benzyl]-3-[6-methyl-3-(4-trifluoromethoxy-benzyl)-3H-imidazo[4,5-b]pyridin-2-yl]-propionamide] | 4 | – |
| C[C@H](NC(=O)CCc1nc2cccnc2n1Cc1ccccc1)c1ccccc1 [Example 1, 3-(3-benzyl-3H-imidazo[4,5-b]pyridin-2-yl)-N—((S)-1-phenyl-ethyl)-propionamide] | – | IC50 [2]: 68 nM |
| O=C(CCc1nc2cccnc2n1Cc1ccccc1OC(F)(F)F)NCc1ccc(OC(F)(F)F)cc1 [Example 120, N-(4-Trifluoromethoxy-benzyl)-3-[3-(2-trifluoromethoxy-benzyl)-3H-imidazo[4,5-b]pyridin-2-yl]-propionamide] | 292 | – |
| CN(C)CCCOc1ccc(CNC(=O)CCc2nc3cccnc3n2Cc2ccc(OC(F)(F)F)cc2)cc1 [Example 10, N-[4-(3-Dimethylamino-propoxy)-benzyl]-3-[3-(4-trifluoromethoxy-benzyl)-3H-imidazo[4,5-b]pyridin-2-yl]-propionamide] | 2 | – |
| CC(C)(C)OC(=O)N1CCC[C@H](CNC(=O)CCc2nc3cccnc3n2Cc2ccc(OC(F)(F)F)cc2)C1 [Example 66, (R)-3-({3-[3-(4-Trifluoromethoxy-benzyl)-3H-imidazo[4,5-b]pyridin-2-yl]-propionylamino}-methyl)-piperidine-1-carboxylic acid tert-butyl ester] | 162 | – |
| COc1ccc(CNC(=O)CCc2nc3cccnc3n2Cc2ccc(OC(F)(F)F)cc2)cc1F [Example 27, N-(3-Fluoro-4-methoxy-benzyl)-3-[3-(4-trifluoromethoxy-benzyl)-3H-imidazo[4,5-b]pyridin-2-yl]-propionamide] | 4 | – |
| COc1ccc(CNC(=O)CCc2nc3cccnc3n2Cc2ccc(OC)cc2)cc1 [Example 222, N-(4-Methoxy-benzyl)-3-[3-(4-methoxy-benzyl)-3H-imidazo[4,5-b]pyridin-2-yl]-propionamide] | – | IC50 (Table 2: additional compounds tested for ATX activity (Quanta Red Assay), read-out: Activity): 193 nM |
| C[C@@H]1CN(c2ccc([C@H](C)NC(=O)CCc3nc4cccnc4n3Cc3ccc(OC(F)(F)F)cc3)cc2)C[C@H](C)N1 [Example 171, N-{(S)-1-[4-((cis)-3,5-Dimethyl-piperazin-1-yl)-phenyl]-ethyl}-3-[3-(4-trifluoromethoxy-benzyl)-3H-imidazo[4,5-b]pyridin-2-yl]-propionamide] | 2 | – |
| C[C@H](NC(=O)CCc1nc2cccnc2n1Cc1ccc(OC(F)(F)F)cc1)c1ccc(N2CCN[C@@H](C)C2)cc1 [Example 176, N-{(S)-1-[4-((S)-3-Methyl-piperazin-1-yl)-phenyl]-ethyl}-3-[3-(4-trifluoromethoxy-benzyl)-3H-imidazo[4,5-b]pyridin-2-yl]-propionamide] | 3 | – |
| C[C@H](NC(=O)CCc1nc2cccnc2n1Cc1ccc(F)c(F)c1)c1ccc(N2CCCC2)cc1 [Example 183, 3-[3-(3,4-Difluoro-benzyl)-3H-imidazo[4,5-b]pyridin-2-yl]-N-[(S)-1-(4-pyrrolidin-1-yl-phenyl)-ethyl]-propionamide] | 10 | – |

| Compound | IC50 [1] [nM] | further results |
| --- | --- | --- |
| O=C(CCc1nc2cccnc2n1Cc1ccc(F)c(F)c1)NCC1CCCCC1 [Example 71, N-Cyclohexylmethyl-3-[3-(3,4-difluoro-benzyl)-3H-imidazo[4,5-b]pyridin-2-yl]-propionamide] | 243 | – |
| C[C@H](NC(=O)CCc1nc2ccncc2n1Cc1ccc(OC(F)(F)F)cc1)c1ccc(N2CCN(C)CC2)cc1 [Example 125, N-{(S)-1-[4-(4-Methyl-piperazin-1-yl)-phenyl]-ethyl}-3-[3-(4-trifluoromethoxy-benzyl)-3H-imidazo[4,5-c]pyridin-2-yl]-propionamide] | 9 | – |
| C[C@H](NC(=O)CCc1nc2cccnc2n1Cc1ccc(F)c(F)c1)c1ccc(N2CCC(N(C)C)C2)cc1 (stereo partly drawn) [Example 177] | 3 | – |
| C[C@H](OC(=O)NCc1nc2cccnc2n1Cc1ccc(F)cc1)c1ccc(F)cc1 [Example 164, [3-(4-Fluoro-benzyl)-3H-imidazo[4,5-b]pyridin-2-ylmethyl]-carbamic acid (S)-1-(4-fluoro-phenyl)-ethyl ester] | – | IC50 [2]: 957 nM |
| O=C(CCc1nc2cccnc2n1Cc1ccc(OC(F)(F)F)cc1)N[C@H](CO)Cc1ccc(O)cc1 [Example 205, N-[(S)-1-Hydroxymethyl-2-(4-hydroxy-phenyl)-ethyl]-3-[3-(4-trifluoromethoxy-benzyl)-3H-imidazo[4,5-b]pyridin-2-yl]-propionamide] | 188 | – |
| C[C@H](NC(=O)CCc1nc2cccnc2n1Cc1ccc(F)cc1)c1ccc(N2CCCCC2)cc1 [Example 186, 3-[3-(4-Fluoro-benzyl)-3H-imidazo[4,5-b]pyridin-2-yl]-N-[(S)-1-(4-piperidin-1-yl-phenyl)-ethyl]-propionamide] | 13 | – |
| C[C@H](NC(=O)CCc1nc2cccnc2n1Cc1ccc(F)c(F)c1)c1ccc(CN(C)C)cc1 [Example 208, 3-[3-(3,4-Difluoro-benzyl)-3H-imidazo[4,5-b]pyridin-2-yl]-N-[(S)-1-(4-dimethylaminomethyl-phenyl)-ethyl]-propionamide] | 80 | – |
| COc1ccc(Cn2c(CCC(=O)N(C)[C@@H](C)c3ccccc3)nc3cccnc32)cc1 [Example 104, 3-[3-(4-Methoxy-benzyl)-3H-imidazo[4,5-b]pyridin-2-yl]-N-methyl-N-((S)-1-phenyl-ethyl)-propionamide] | 69 | – |
| Cc1csc(NC(=O)CCc2nc3cccnc3n2Cc2ccc(OC(F)(F)F)cc2)n1 [Example 77, N-(4-Methyl-thiazol-2-yl)-3-[3-(4-trifluoromethoxy-benzyl)-3H-imidazo[4,5-b]pyridin-2-yl]-propionamide] | 714 | – |
| COc1ccc(Cn2c(CCC(=O)NCc3cccc(C)c3)nc3cccnc32)cc1 [Example 115, 3-[3-(4-Methoxy-benzyl)-3H-imidazo[4,5-b]pyridin-2-yl]-N-(3-methyl-benzyl)-propionamide] | 650 | – |
| C[C@H](NC(=O)CCc1nc2cccnc2n1Cc1ccc(F)cc1)c1ccccn1 [Example 68, 3-[3-(4-Fluoro-benzyl)-3H-imidazo[4,5-b]pyridin-2-yl]-N-((S)-1-pyridin-2-yl-ethyl)-propionamide] | 212 | – |
| CC[C@H](NC(=O)CCc1nc2ccncc2n1Cc1ccc(F)cc1)c1ccccc1 [Example 127, 3-[3-(4-Fluoro-benzyl)-3H-imidazo[4,5-c]pyridin-2-yl]-N-((S)-1-phenyl-propyl)-propionamide] | 14 | – |
| COc1ccc(CNC(=O)CCc2nc3cc(C)cnc3n2Cc2ccc(OC(F)(F)F)cc2)cc1 [Example 53, N-(4-Methoxy-benzyl)-3-[6-methyl-3-(4-trifluoromethoxy-benzyl)-3H-imidazo[4,5-b]pyridin-2-yl]-propionamide] | 38 | – |
| O=C(CCc1nc2cccnc2n1Cc1ccccc1)NCc1cccs1 [Example 3, 3-(3-Benzyl-3H-imidazo[4,5-b]pyridin-2-yl)-N-thiophen-2-ylmethyl-propionamide] | – | IC50 [2]: 855 nM |
| O=C(CCc1nc2cccnc2n1Cc1ccc(C(F)(F)F)cc1)NC(CO)c1ccc(OC(F)(F)F)cc1 (stereo not drawn) [Example 32, N-[2-Hydroxy-1-(4-trifluoromethoxy-phenyl)-ethyl]-3-[3-(4-trifluoromethyl-benzyl)-3H-imidazo[4,5-b]pyridin-2-yl]-propionamide] | 6 | – |
| COc1ccc(Cn2c(CCC(=O)NCc3ccccc3)nc3cccnc32)cc1 [Example 236, N-Benzyl-3-[3-(4-methoxy-benzyl)-3H-imidazo[4,5-b]pyridin-2-yl]-propionamide, reference compound] | – | IC50 (Table 3: commercially available compounds tested for Autotaxin activity (Quanta Red assay), read-out: Activity): 406 nM |
